Tests used:
[1] = AUC (0 to infinity) in healthy human at […] administered via nasogastric tube by ITT analysis; assay type: ADME, organism-based; parameters: route nasogastric, time infinity; settings: plasma, po
[2] = AUC (0 to infinity) in healthy human at […], po by ITT analysis; assay type: ADME, organism-based; parameters: time infinity, route oral; settings: plasma
[3] = AUClast in healthy human at […] administered via nasogastric tube by ITT analysis; assay type: ADME, organism-based; parameters: time 0 - last, route nasogastric; settings: plasma, po
[4] = Cmax in healthy human at […] administered via nasogastric tube by ITT analysis; assay type: ADME, organism-based; parameters: route nasogastric; settings: in vivo, po
[5] = AUClast in healthy human at […], po by ITT analysis; assay type: ADME, organism-based; parameters: time 0 - last, route oral; settings: plasma
[6] = Cmax in healthy human at […], po by ITT analysis; assay type: ADME, organism-based; parameters: route oral; settings: in vivo
[7] = Apparent oral clearance in healthy human at […] administered via nasogastric tube; assay type: ADME, organism-based; parameters: route oral; settings: in vivo
[8] = Elimination rate in healthy human at […] administered via nasogastric tube; assay type: ADME, organism-based; settings: in vivo
[9] = Terminal half life in healthy human at […] administered via nasogastric tube; assay type: ADME, organism-based; settings: in vivo
[10] = AUC (0 to infinity) in healthy human at […] administered via nasogastric tube; assay type: ADME, organism-based; parameters: route nasogastric, time infinity; settings: plasma, po
[11] = Tmax in healthy human at […] administered via nasogastric tube; assay type: ADME, organism-based; settings: in vivo
[12] = AUClast in healthy human at […] administered via nasogastric tube; assay type: ADME, organism-based; parameters: route nasogastric, time 0 - last; settings: plasma, po
[13] = Cmax in healthy human at […] administered via nasogastric tube; assay type: ADME, organism-based; parameters: route nasogastric; settings: in vivo, po
[14] = Apparent oral clearance in healthy human at […], po; assay type: ADME, organism-based; parameters: route oral; settings: in vivo
[15] = Elimination rate in healthy human at […], po; assay type: ADME, organism-based; parameters: route oral; settings: in vivo
[16] = Terminal half life in healthy human at […], po; assay type: ADME, organism-based; parameters: route oral; settings: in vivo
[17] = AUClast in healthy human at […], po; assay type: ADME, organism-based; parameters: time 0 - last, route oral; settings: plasma
[18] = AUC (0 to infinity) in healthy human at […], po; assay type: ADME, organism-based; parameters: route oral, time infinity; settings: plasma
[19] = Cmax in healthy human at 400 mg, po; settings: in vivo
[20] = Tmax in healthy human at 400 mg, po; settings: in vivo

CC[C@@H]([C@H](C)O)n1ncn(-c2ccc(N3CCN(c4ccc(OC[C@@H]5CO[C@@](Cn6cncn6)(c6ccc(F)cc6F)C5)cc4)CC3)cc2)c1=O [POSACONAZOLE]
AUC(0-inf) [1]: 7210 ng·h/mL
AUC(0-inf) [2]: 9390 ng·h/mL
AUC(0-t) [3]: 6950 ng·h/mL
Cmax [4]: 233 ng/mL
AUC(0-t) [5]: 9100 ng·h/mL
Cmax [6]: 289 ng/mL
CL/F [7]: 990 mL/min
k el [8]: 8.61e-06 s⁻¹
half-life [9]: 23.7 h
AUC(0-inf) [10]: 8400 ng·h/mL
Tmax [11]: 4 h
AUC(0-t) [12]: 8030 ng·h/mL
Cmax [13]: 266 ng/mL
CL/F [14]: 822 mL/min
k el [15]: 9.72e-06 s⁻¹
half-life [16]: 21.6 h
AUC(0-t) [17]: 10400 ng·h/mL
AUC(0-inf) [18]: 10900 ng·h/mL
Cmax [19]: 324 ng/mL
Tmax [20]: 4 h
